System: Human Blood Platelets
Experiment: Platelet aggregation assay (Payton duo-channel aggregometer), PAF-16-induced aggregation in platelet-rich plasma
Type: cell-based
Conditions: agonist PAF-16 20 ng/ml
Experimental: Platelet Aggregation Assay
The inhibitory effects of Tβ4 on platelet aggregation were tested using a Payton duo-channel aggregometer. This aggregometer produces a plot of % light transmission (directly proportional to % aggregation) vs. time.
For each experiment, one 9 ml blood sample was drawn from a fasting, non-smoking, healthy subject into a propylene tube containing 1 ml of 3.8% sodium-citrate (anti-coagulant). This blood sample was then diluted with 2 ml of phosphate buffer (phosphate-buffer saline with 11 mM glucose and 3 mM sodium citrate). Dilution with phosphate buffer aids in stabilization of the platelet environment and retention of platelet activity for a longer period of time. Platelet-rich plasma (PRP) was prepared by centrifuging the blood for 3 min at 2300 RPM. After removal of PRP, the volume of the remaining blood was brought up to 10 ml by adding phosphate buffer, and the sample was once again centrifuged for the preparation of platelet-poor (PPP). To obtain PPP, we centrifuged the blood for 10 min at 2800 RPM.
Platelet aggregation tests were performed by recording % light transmission (vs. time) through samples of PRP. Before each assay, the aggregometer was adjusted such that PRP gave no light transmission. For aggregation assays, duplicate samples (0.4 ml) of PRP were incubated with 1 mM CaCl2 (to restore the physiologic concentration of Ca^++) for 1 min at 37° C. Different amounts of Tβ4, ranging for 20 to 300 ng, dissolved in 30 μl of distilled/deionized water, were added to each assay. The mixture was then incubated and stirred for an additional 2 min before aggregation was induced with an agonist.
Among the agonists used in the experiments were ADP, epinephrine, arachidonic acid, thrombin, collagen (Sigma Chemicals), and PAF (Platelet-activating factor)-16 (from Calbiochem). Concentrations of these reagents were 1 μm, 10 μm, 100 μg/ml, 0.2 NIH units, 0.05 mg/ml, and 20 ng/ml respectively. Two control assays were run at the beginning and end of each experiment. An assay without Tβ4 (but with an equivalent volume of H2O) constitutes a control, and the % light transmission produced by each control is assigned a value of % 100 for each experiment. For the measurement of % inhibition caused by Tβ4, light transmission in a Tβ4 assay was compared to the average light transmission in the start and end controls, using the following formula: […]

Which results are given for “thymosin beta 4 (SDKPDMAEIEKFDKSKLKKTETQEKNPLPSKETIEQEKQAGES; Thymosin beta-4; UniProt P62328 2-44, looked up) [Tβ4]”?
Average % Inhibition of Aggregation (20 ng Tβ4 per assay (0.4 ml PRP)): 50%; Average % Inhibition of Aggregation (40 ng Tβ4 per assay (0.4 ml PRP)): 90%; Average % Inhibition of Aggregation (60 ng Tβ4 per assay (0.4 ml PRP)): 100%; Average % Inhibition of Aggregation (80 ng Tβ4 per assay (0.4 ml PRP)): 95%; Average % Inhibition of Aggregation (100 ng Tβ4 per assay (0.4 ml PRP)): 92%; Average % Inhibition of Aggregation (300 ng Tβ4 per assay (0.4 ml PRP)): 84%

From patent publication US8399609B2, “Treating or preventing extracellular matrix build-up” (RegeneRx Biopharmaceuticals, Inc., priority 2004, dated 2013)
